These results are taken from patent publication US20230356105A1, “TETRAAZADODECANE BASED CHELATING AGENTS FOR SEPARATION OF RARE EARTH ELEMENTS AND METHOD THEREFOR” (Ustav Organicke Chemie a Biochemie AV CR V.V.I., priority 2020, published 2023).

The nature of this data set: Use of additives to improve separation of Nd/Dy mixture by precipitation with L5 (Example 18). It counts as physicochemical. As to conditions: 11 mM L5. How it is done: Stock solutions were pipetted into plastic 1×1 cm cuvettes to prepare reaction mixtures with concentrations as follows: • 1. […] 5 mM NdCl3 • 3. 5 mM DyCl3 • 4. 500 mM MOPS pH=7 • 5. the additive of interest, in a variable concentration; if possible, stock solutions were prepared from Na^+ salt forms of the compound; if not, the stock solutions were titrated by NaOH/HCl to pH=7 prior to addition (see Table 12 for additives and concentrations)
These aqueous reaction mixtures, each prepared to a total volume of 2.0 mL with the addition of water as necessary, were mixed by the use of a PTFE-coated stir bar on a magnetic stirrer. The cuvettes were sealed with transparent tape to prevent evaporation overnight. The reaction mixtures were stirred for 18 hours, at which point 500 μL aliquots of each reaction mixture were transferred into plastic 2 mL Eppendorf tubes and centrifuged. The supernatants were carefully pipetted out and transferred to a new set of tubes. The precipitate was dissolved by addition of 500 μL 1M HCl. The absolute concentration of Nd and Dy in each supernatant and precipitate was determined by ICP-OES.

As to `Cl` [chloride], the “Precipitate concentration [mM] Dy” value (additive 100 mM) came to 4.58 mM, the “Precipitate concentration [mM] Dy” value (additive 200 mM) is 4.48 mM, the “Precipitate concentration [mM] Dy” value (additive 500 mM) is reported as 4.29 mM and the “Precipitate concentration [mM] Dy” value (additive 1000 mM) is reported as 4.88 mM. Also, the “Precipitate concentration [mM] Nd” value is, setting by setting: (additive 100 mM) 4.62 mM; (additive 200 mM) 4.57 mM; (additive 500 mM) 4.39 mM; (additive 1000 mM) 4.97 mM. The “Supernatant concentration [mM] Dy” value by setting is: (additive 100 mM) 0.29 mM; (additive 200 mM) 0.22 mM; (additive 500 mM) 0.24 mM; (additive 1000 mM) 0.24 mM. Also, the “Supernatant concentration [mM] Nd” value by setting is: (additive 100 mM) 0.24 mM; (additive 200 mM) 0.12 mM; (additive 500 mM) 0.11 mM; (additive 1000 mM) 0.11 mM.
Consider `O=C(O)CC(O)(CC(=O)O)C(=O)O` [citrate], for which, where the note is “additive 1 mM”, the “Precipitate concentration [mM] Dy” value stood at 4.03 mM, the “Precipitate concentration [mM] Nd” value is reported as 4.30 mM, the “Supernatant concentration [mM] Dy” value turned out to be 0.38 mM and the “Supernatant concentration [mM] Nd” value turned out to be 0.14 mM. Moreover, for the setting “additive 5 mM”, the “Precipitate concentration [mM] Dy” value is listed as 3.62 mM, the “Precipitate concentration [mM] Nd” value is reported as 4.77 mM, the “Supernatant concentration [mM] Dy” value came to 1.24 mM and the “Supernatant concentration [mM] Nd” value is 0.19 mM. Further, where the note is “additive 10 mM”, the “Precipitate concentration [mM] Dy” value came out at 2.38 mM, the “Precipitate concentration [mM] Nd” value came out at 4.49 mM, the “Supernatant concentration [mM] Dy” value turned out to be 2.27 mM and the “Supernatant concentration [mM] Nd” value worked out at 0.25 mM. Under “additive 20 mM”, the “Precipitate concentration [mM] Dy” value is 1.21 mM, the “Precipitate concentration [mM] Nd” value is recorded as 4.08 mM, the “Supernatant concentration [mM] Dy” value is 3.52 mM and the “Supernatant concentration [mM] Nd” value came out at 0.66 mM.
Consider `O=C(O)c1cccc(C(=O)O)n1` [dipicolinic acid], for which, where the note is “additive 20 mM”, the “Precipitate concentration [mM] Dy” value is recorded as 0.36 mM, the “Precipitate concentration [mM] Nd” value is on record as 2.66 mM, the “Supernatant concentration [mM] Dy” value is recorded as 4.29 mM and the “Supernatant concentration [mM] Nd” value was 2.21 mM.
`F` [fluoride]: under “additive 5 mM”, the “Precipitate concentration [mM] Dy” value is recorded as 4.87 mM, the “Precipitate concentration [mM] Nd” value turned out to be 6.21 mM, the “Supernatant concentration [mM] Dy” value worked out at 1.21 mM and the “Supernatant concentration [mM] Nd” value is 0.13 mM. Moreover, for the setting “additive 10 mM”, the “Precipitate concentration [mM] Dy” value is recorded as 3.82 mM, the “Precipitate concentration [mM] Nd” value came to 6.15 mM, the “Supernatant concentration [mM] Dy” value is 2.34 mM and the “Supernatant concentration [mM] Nd” value turned out to be 0.18 mM. Further, for the setting “additive 15 mM”, the “Precipitate concentration [mM] Dy” value turned out to be 2.72 mM, the “Precipitate concentration [mM] Nd” value amounted to 5.68 mM, the “Supernatant concentration [mM] Dy” value was determined as 3.26 mM and the “Supernatant concentration [mM] Nd” value worked out at 0.49 mM.
As for `O=CO` [formate], the “Precipitate concentration [mM] Dy” value came to 4.33 mM (additive 50 mM), 3.84 mM (additive 100 mM), 3.33 mM (additive 250 mM) and 2.09 mM (additive 500 mM). For the same compound, the “Precipitate concentration [mM] Nd” value was determined as 5.17 mM (additive 50 mM), 4.85 mM (additive 100 mM), 5.38 mM (additive 250 mM) and 4.93 mM (additive 500 mM). The “Supernatant concentration [mM] Dy” value by setting is: (additive 50 mM) 0.51 mM; (additive 100 mM) 1.09 mM; (additive 250 mM) 1.68 mM; (additive 500 mM) 2.51 mM. Moreover, the “Supernatant concentration [mM] Nd” value is, setting by setting: (additive 50 mM) 0.07 mM; (additive 100 mM) 0.42 mM; (additive 250 mM) 0.11 mM; (additive 500 mM) 0.22 mM.
